# Experimental data as given in ChEMBL document CHEMBL4002601, “A triple exon-skipping luciferase reporter assay identifies a new CLK inhibitor pharmacophore” (Bioorg Med Chem Lett, 2017).
# Key:
# [1] = target: Mitogen-activated protein kinase 8 (Homo sapiens) (UniProt P45983); test: Inhibition of human JNK1alpha1 using ATF2 as substrate in presence of [gamma-33P]ATP at 1 uM after 40 mins by scintillation counter method
# [2] = target: Epidermal growth factor receptor (Homo sapiens) (UniProt P00533); test: Inhibition of human EGFR using poly(Glu, Tyr) 4:1 as substrate in presence of [gamma-33P]ATP at 1 uM after 40 mins by scintillation counter method
# [3] = target: Receptor-type tyrosine-protein kinase FLT3 (Homo sapiens) (UniProt P36888); test: Inhibition of human Flt3 using EAIYAAPFAKKK as substrate in presence of [gamma-33P]ATP at 1 uM after 40 mins by scintillation counter method
# [4] = target: Macrophage colony-stimulating factor 1 receptor (Homo sapiens) (UniProt P07333); test: Inhibition of human Fms using KKKSPGEYVNIEFG as substrate in presence of [gamma-33P]ATP at 1 uM after 40 mins by scintillation counter method
# [5] = target: Serine/threonine-protein kinase B-raf (Homo sapiens) (UniProt P15056); test: Inhibition of human BRAF using myelin basic protein as substrate in presence of [gamma-33P]ATP at 1 uM after 40 mins by scintillation counter method
# [6] = target: Dual specificity mitogen-activated protein kinase kinase 1 (Homo sapiens) (UniProt Q02750); test: Inhibition of human MEK1 using inactive MAPK2 as substrate in presence of [gamma-33P]ATP at 1 uM after 40 mins by scintillation counter method
# [7] = target: T1, Inhibitor of nuclear factor kappa-B kinase subunit beta (Homo sapiens) (UniProt O14920); test: Inhibition of human IKKbeta using KKKKERLLDDRHDSGLDSMKDEE as substrate in presence of [gamma-33P]ATP at 1 uM after 40 mins by scintillation counter method
# T1 sequence (whole entry): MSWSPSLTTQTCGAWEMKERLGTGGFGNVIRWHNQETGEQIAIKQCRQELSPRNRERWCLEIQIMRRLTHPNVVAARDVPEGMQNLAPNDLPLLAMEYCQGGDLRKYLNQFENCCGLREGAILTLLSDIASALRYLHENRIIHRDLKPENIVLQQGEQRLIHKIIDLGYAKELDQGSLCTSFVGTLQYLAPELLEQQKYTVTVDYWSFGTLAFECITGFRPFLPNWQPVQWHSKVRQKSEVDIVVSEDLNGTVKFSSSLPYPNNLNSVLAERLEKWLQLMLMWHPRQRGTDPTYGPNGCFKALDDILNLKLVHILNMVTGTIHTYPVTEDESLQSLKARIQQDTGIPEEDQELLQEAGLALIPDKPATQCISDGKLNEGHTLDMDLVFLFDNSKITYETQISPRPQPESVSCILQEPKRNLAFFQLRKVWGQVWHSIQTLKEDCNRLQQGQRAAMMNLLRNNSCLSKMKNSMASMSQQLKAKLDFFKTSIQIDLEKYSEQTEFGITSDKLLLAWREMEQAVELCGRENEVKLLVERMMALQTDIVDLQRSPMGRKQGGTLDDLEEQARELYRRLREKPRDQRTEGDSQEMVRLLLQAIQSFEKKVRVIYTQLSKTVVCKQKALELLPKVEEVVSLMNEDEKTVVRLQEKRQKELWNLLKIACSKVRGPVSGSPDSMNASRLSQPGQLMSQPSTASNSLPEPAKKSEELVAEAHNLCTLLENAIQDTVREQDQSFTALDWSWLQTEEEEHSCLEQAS
# [8] = target: T2, Aurora kinase A (Homo sapiens) (UniProt O14965); test: Inhibition of human Aurora-A using Kemptide as substrate in presence of [gamma-33P]ATP at 1 uM after 40 mins by scintillation counter method
# T2 sequence (whole entry): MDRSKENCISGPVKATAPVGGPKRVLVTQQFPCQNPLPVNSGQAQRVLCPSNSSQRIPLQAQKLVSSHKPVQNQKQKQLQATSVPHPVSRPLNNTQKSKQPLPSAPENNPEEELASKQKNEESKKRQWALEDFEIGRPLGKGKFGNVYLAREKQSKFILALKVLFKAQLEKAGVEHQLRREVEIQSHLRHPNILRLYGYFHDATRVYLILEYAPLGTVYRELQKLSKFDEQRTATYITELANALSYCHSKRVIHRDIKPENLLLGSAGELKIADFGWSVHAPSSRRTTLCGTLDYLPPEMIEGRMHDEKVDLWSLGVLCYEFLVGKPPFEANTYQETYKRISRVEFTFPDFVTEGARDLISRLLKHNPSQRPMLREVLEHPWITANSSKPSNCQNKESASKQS
# [9] = target: PI3-kinase p110-delta/p85-alpha (Homo sapiens) (UniProt P27986+O00329); test: Inhibition of human PI3K p110delta/pI3K p85alpha at 1 uM using PIP2 as substrate in presence of biotinylated PIP3 and ATP and measured after 30 mins by HTRF method; assay type: protein-complex assay
# [10] = target: PI3-kinase p110-alpha/p85-alpha (Homo sapiens) (UniProt P27986+P42336); test: Inhibition of human PI3K p110alpha/pI3K p85alpha at 1 uM using PIP2 as substrate in presence of biotinylated PIP3 and ATP and measured after 30 mins by HTRF method; assay type: protein-complex assay
# [11] = target: ALK tyrosine kinase receptor (Homo sapiens) (UniProt Q9UM73); test: Inhibition of human ALK using casein as substrate in presence of [gamma-33P]ATP at 1 uM after 40 mins by scintillation counter method
# [12] = target: T3, Dual specificity protein kinase CLK1 (Homo sapiens, UniProt P49759); test: Inhibition of CLK mediated SF3B1 activation in human SK-MEL-2 cells assessed as MDM2-pre mRNA exon skipping at 10 uM after 4 hrs by luciferase reporter gene assay relative to control; assay type: cell-based
# Target sequence in this assay (P49759 whole entry, looked up): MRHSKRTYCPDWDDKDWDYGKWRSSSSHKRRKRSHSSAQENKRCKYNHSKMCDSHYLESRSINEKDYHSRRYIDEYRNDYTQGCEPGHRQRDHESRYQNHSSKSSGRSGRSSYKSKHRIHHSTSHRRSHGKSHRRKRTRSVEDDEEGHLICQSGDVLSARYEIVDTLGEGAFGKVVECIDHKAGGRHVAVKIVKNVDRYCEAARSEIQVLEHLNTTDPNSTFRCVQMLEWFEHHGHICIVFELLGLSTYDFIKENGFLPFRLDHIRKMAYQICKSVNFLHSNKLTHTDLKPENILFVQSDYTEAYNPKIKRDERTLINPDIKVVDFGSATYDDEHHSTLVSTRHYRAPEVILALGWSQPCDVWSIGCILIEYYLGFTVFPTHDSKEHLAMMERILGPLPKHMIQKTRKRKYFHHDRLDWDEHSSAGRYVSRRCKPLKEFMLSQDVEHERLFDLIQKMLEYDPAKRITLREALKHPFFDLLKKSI
# [13] = target: SRSF protein kinase 1 (Homo sapiens) (UniProt Q96SB4); test: Inhibition of human SRPK1 using RSRSRSRSRSRSRSR as substrate in presence of [gamma-33P]ATP at 1 uM after 40 mins by scintillation counter method
# CDK4/Cyclin D3 = CDK4/Cyclin D3 (Homo sapiens, UniProt P11802); test: Inhibition of human CDK4/cyclinD3 using Histone H1 as substrate in presence of [gamma-33P]ATP after 40 mins by scintillation counter method; assay type: protein-complex assay
# [14] = target: Dual specificity protein kinase CLK3 (Homo sapiens, UniProt P49761); test: Inhibition of human CLK3 using ERMRPRKRQGSVRRRV as substrate in presence of [gamma-33P]ATP after 40 mins by scintillation counter method
# CDK6/cyclin D3 = CDK6/cyclin D3 (Homo sapiens, UniProt Q00534); test: Inhibition of human CDK6/cyclinD3 using Histone H1 as substrate in presence of [gamma-33P]ATP after 40 mins by scintillation counter method; assay type: protein-complex assay
# [15] = target: Cyclin-dependent kinase 1/cyclin B1 (Homo sapiens, UniProt P06493); test: Inhibition of human CDK1/cyclinB using Histone H1 as substrate in presence of [gamma-33P]ATP after 40 mins by scintillation counter method; assay type: protein-complex assay
# [16] = target: T3, Dual specificity protein kinase CLK1; test: Inhibition of CLK mediated SF3B1 activation in human SK-MEL-2 cells assessed as MDM2-pre mRNA exon skipping after 4 hrs by luciferase reporter gene assay relative to control; assay type: cell-based; conditions: read-out: EC50
# Target sequence in this assay (P49759 whole entry): as the sequence (P49759 whole entry, looked up) above
# ALK tyrosine kinase receptor (Homo sapiens), sequence (Q9UM73 19-1620 limits assumed): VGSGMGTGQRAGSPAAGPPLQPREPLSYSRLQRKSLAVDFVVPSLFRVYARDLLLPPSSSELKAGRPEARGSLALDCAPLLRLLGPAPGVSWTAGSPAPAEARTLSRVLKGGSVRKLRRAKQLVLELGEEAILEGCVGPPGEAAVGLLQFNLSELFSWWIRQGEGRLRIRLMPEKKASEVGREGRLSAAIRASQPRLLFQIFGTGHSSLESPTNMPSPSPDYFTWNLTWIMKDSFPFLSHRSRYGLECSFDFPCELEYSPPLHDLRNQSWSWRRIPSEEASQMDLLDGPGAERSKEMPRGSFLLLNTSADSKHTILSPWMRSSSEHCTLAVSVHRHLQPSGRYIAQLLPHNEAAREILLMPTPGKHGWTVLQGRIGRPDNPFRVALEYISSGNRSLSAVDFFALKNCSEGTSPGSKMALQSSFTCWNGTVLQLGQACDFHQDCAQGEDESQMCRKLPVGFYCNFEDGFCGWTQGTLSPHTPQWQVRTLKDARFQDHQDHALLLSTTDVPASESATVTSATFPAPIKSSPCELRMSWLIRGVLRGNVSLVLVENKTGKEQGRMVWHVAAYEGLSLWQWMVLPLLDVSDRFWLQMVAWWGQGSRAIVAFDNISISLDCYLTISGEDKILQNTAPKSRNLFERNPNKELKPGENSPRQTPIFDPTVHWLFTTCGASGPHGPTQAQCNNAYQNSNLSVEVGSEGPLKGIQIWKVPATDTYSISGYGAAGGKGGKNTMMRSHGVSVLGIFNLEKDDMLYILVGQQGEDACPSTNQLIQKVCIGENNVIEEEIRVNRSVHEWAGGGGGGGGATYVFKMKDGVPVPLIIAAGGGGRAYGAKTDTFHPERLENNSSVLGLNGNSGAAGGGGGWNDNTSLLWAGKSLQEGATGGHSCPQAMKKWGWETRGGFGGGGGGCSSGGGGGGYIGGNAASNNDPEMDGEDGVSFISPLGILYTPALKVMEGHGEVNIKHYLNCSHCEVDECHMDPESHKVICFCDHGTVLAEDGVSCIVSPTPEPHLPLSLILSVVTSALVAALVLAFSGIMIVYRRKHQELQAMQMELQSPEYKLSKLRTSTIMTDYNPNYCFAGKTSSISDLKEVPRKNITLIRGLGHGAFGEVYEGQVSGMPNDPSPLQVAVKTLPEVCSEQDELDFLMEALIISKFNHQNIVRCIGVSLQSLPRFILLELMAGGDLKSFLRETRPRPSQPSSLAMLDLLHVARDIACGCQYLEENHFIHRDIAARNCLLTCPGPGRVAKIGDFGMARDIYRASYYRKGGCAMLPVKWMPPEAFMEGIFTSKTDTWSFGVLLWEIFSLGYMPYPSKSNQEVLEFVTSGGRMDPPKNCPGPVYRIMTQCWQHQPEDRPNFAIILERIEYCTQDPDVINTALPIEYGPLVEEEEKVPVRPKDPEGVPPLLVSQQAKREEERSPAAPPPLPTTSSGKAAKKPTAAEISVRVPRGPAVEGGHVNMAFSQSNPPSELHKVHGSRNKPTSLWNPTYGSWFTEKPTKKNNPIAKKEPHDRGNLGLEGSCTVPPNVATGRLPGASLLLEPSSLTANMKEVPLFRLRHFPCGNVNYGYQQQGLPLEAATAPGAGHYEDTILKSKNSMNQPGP
# Epidermal growth factor receptor (Homo sapiens), sequence (P00533 whole entry): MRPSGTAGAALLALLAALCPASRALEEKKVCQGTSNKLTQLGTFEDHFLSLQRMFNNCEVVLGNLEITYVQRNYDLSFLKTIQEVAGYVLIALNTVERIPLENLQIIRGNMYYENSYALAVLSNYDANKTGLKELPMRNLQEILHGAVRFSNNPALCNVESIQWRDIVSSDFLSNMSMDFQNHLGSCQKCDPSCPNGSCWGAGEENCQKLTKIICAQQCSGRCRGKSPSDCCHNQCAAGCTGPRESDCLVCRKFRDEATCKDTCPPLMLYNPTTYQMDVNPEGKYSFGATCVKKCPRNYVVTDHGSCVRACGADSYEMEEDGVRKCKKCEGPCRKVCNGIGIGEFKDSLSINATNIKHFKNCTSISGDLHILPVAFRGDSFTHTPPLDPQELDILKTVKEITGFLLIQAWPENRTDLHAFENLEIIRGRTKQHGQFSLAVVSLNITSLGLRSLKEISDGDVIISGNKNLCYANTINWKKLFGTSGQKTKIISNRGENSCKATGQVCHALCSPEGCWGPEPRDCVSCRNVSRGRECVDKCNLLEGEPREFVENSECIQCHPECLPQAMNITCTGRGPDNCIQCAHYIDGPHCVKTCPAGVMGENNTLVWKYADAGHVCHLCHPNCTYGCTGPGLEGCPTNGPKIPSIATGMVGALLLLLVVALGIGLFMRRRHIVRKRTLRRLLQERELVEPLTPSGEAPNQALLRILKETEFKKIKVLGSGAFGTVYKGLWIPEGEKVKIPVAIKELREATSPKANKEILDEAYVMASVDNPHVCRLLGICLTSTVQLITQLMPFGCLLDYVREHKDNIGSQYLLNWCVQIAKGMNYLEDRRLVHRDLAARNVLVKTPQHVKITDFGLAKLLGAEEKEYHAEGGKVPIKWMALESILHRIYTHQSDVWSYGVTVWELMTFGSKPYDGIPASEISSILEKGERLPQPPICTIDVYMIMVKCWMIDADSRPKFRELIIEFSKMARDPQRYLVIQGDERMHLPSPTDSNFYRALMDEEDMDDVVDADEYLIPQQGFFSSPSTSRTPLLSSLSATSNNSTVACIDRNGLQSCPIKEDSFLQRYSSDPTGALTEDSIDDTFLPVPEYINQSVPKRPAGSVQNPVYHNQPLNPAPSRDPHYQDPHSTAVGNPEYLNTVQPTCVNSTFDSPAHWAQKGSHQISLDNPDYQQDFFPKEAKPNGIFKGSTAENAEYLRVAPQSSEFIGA
# Mitogen-activated protein kinase 8 (Homo sapiens), sequence (P45983 whole entry): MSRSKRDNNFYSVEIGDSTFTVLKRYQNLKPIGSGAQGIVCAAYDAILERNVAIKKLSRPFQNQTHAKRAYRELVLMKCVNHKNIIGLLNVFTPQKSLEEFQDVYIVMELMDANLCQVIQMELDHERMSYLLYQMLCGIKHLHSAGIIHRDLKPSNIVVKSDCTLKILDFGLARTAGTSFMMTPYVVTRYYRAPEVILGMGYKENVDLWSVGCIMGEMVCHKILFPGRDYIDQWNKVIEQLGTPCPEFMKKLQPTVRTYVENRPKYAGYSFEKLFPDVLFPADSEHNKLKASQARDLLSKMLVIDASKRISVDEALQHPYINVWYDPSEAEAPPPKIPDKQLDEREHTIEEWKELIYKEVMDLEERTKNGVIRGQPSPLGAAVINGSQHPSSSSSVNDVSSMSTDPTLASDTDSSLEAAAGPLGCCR
# Receptor-type tyrosine-protein kinase FLT3 (Homo sapiens), sequence (P36888 whole entry): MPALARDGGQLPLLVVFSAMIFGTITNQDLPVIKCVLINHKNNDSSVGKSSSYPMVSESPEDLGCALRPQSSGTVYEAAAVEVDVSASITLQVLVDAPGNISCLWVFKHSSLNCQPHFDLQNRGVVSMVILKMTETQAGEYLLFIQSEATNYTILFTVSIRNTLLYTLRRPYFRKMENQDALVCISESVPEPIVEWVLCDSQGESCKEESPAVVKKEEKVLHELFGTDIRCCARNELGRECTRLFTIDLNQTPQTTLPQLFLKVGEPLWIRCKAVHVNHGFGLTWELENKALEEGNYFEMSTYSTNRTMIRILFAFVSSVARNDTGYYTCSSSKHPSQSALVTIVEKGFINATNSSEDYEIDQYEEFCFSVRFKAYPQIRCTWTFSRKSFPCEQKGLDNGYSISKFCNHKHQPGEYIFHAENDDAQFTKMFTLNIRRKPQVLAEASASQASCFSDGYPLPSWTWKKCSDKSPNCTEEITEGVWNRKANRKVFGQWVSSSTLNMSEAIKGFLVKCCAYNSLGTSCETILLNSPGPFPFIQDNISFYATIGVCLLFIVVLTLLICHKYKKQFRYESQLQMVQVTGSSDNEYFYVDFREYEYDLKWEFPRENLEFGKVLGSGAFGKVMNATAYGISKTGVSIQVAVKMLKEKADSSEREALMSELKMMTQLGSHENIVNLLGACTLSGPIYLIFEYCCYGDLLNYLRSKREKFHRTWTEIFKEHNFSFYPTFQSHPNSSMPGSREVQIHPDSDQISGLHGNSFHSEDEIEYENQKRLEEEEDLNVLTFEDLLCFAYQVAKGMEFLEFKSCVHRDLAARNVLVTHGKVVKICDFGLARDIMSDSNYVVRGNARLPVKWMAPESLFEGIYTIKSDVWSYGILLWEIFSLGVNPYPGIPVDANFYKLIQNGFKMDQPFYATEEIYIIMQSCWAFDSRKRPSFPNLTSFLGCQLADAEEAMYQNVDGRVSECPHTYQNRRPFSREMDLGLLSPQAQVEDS
SMILES,inhibition [1] [%],inhibition [2] [%],inhibition [3] [%],inhibition [4] [%],inhibition [5] [%],inhibition [6] [%],inhibition [7] [%],inhibition [8] [%],inhibition [9] [%],inhibition [10] [%],inhibition [11] [%],fold change (FC) [12],inhibition [13] [%],IC50 (CDK4/Cyclin D3) [nM],IC50 [14] [nM],IC50 (CDK6/cyclin D3) [nM],IC50 [15] [nM],EC50 [16] [nM]
CC(C)n1cnc2c(Nc3cc(N)cc(Cl)c3)nc(N[C@@H]3CCCC[C@@H]3N)nc21 (racemic),-6,-1,93,9,5,6,-9,13,0,1,10,> 3,21,,,,,
CC(C)n1cnc2c(Nc3cccc(Cl)c3)nc(N[C@H]3CCCC[C@@H]3N)nc21,3,-6,19,-1,10,10,-2,4,2,2,7,> 3,-1,> 1000,> 1000,> 1000,> 1000,11700
CC(C)n1cnc2c(Nc3cccc(Cl)c3)nc(N[C@@H]3CCCC[C@@H]3N)nc21,-1,3,90,,21,8,-5,-5,3,5,-2,> 3,48,541,> 1000,> 1000,674,4300
